Assay results: US20160120858A1 (ACADEMIA SINICA, priority 2014, published 2016)
Entries after “also recorded” stand apart in the source; their conditions may differ.

Tests used:
NMDAR [1] = assay: NMDA-fEPSP extracellular recordings, hippocampal slices; format: cell-based, mouse; conditions: for Effect on clioquinol-dependent increase in NMDAR activity (NMDA-fEPSPs): applied to hippocampal slices before clioquinol treatment
Description: (§1) For electrophysiological experiments, sagittal hippocampal slices (400 uM thick for extracellular, 300 uM thick for intracellular recordings) of Shank2^−/− mice (or ZnT3^−/− mice) and their wild-type littermates were prepared using a vibratome (Leica VT1200) in ice-cold dissection buffer containing (in mM) 212 sucrose, 25 NaHCO3, 5 KCl, 1.25 NaH2PO4, 0.5 CaCl2, 3.5 MgSO4, 10 D-glucose, 1.25 L-ascorbic acid, and 2 Na-pyruvate bubbled with 95% 02/5% CO2. CA3 was removed to prevent epileptiform activity. Slices were restored for 1 hour in 32° C. in a normal artificial CSF (ACSF) (In units of mM: 124 NaCl, 2.5 kCl, 1 NaH2PO4, 25 NaHCO3, 10 glucose, 2 CaC12, 2 Mg504 oxidized by 95% 02/5% CO2) For the recording, a single slice was moved to and maintained in submerged-type chamber at 28° C., continuously perfused with ACSF (2 mL/minute) saturated with 95% 02/5% CO2. Stimulation and recording pipettes were pulled from borosilicate glass capillaries (Harvard Apparatus) using a micropipette electrode puller (Narishege).
For extracellular recordings, mouse hippocampal slices at the age of postnatal day 21 to 35 were used. Field excitatory postsynaptic potentials (fEPSPs) were recorded in the stratum radiatum of the hippocampal CA1 region using pipettes filled with ACSF (1 MΩ). fEPSP was amplified (Multiclamp 700B, Molecular Devices), and digitized (Digidata 1440A, Molecular
Devices) for measurements. The Schaffer collateral pathway was stimulated every 20 seconds with pipettes filled with ACSF (0.3 to 0.5 MΩ). The stimulation intensity was adjusted to yield a half-maximal response, and three successive responses were averaged and expressed relative to the normalized baseline. To induce LTP, high frequency stimulation (100 Hz, 1 s) was applied after a stable baseline was acquired. […] To isolate NMDAR-mediated fEPSPs, ACSF containing 2 mM calcium, 0.1 mM magnesium, and 6,7-dinitroquinoxaline-2,3-dione (10 uM, DNQX, Tocris), which inhibits AMPAR-mediated EPSPs, were used.

NMDAR [2] = assay: Simultaneous NMDA- and AMPA-eEPSCs at −40 mV, patch-clamp, hippocampal slices; format: cell-based, mouse; conditions: for Effect on clioquinol-dependent increase in NMDA/AMPA ratio at −40 mV: WT and KO
Description: as §1
Whole-cell patch-clamp recordings of hippocampal CA1 pyramidal neurons were also made using a MultiClamp 700B amplifier (Molecular Devices) and Digidata 1440A (Molecular Devices). During whole-cell patch-clamp recordings, series resistance was monitored each sweep by measuring the peak amplitude of the capacitance currents in response to short hyperpolarizing step pulse (5 mV, 40 ms); only cells with a change in <25% were included in the analysis. For NMDA (N-Methyl-D-aspartate)/AMPA (alpha-amino-3-hydroxy-5-methylisoxazole-4-propionic acid) ratio experiments, mouse hippocampal slices at the age of postnatal day 17 to 25 were used. The recording pipettes (2.5 to 3.5 MΩ) were filled with an internal solution containing the following (in mM): 100 CsMeSO4, 10 TEA-Cl, 8 NaCl, 10 HEPES, 5 QX-314-C1, 2 Mg-ATP, 0.3 Na-GTP, 10 EGTA, with pH 7.25, 295 mOsm). CA1 pyramidal neurons were voltage-clamped at −70 mV, and EPSPs were evoked at every 15 sec. AMPAR-mediatedEPSCs were recorded at −70 mV, and 30 consecutive responses were recorded after stable baseline. After recording AMPAR-mediated EPSPs, holding potential was changed to +40 mV to record NMDA receptor-mediated EPSPs. NMDA component was measured at 60 ms after the stimulation. The NMDA/AMPA ratio was determined by dividing the mean value of 30 NMDA components of EPSPs by the mean value of 30 AMPAR-mediated EPSC peak amplitudes. […] For measuring AMPAR-mediated and NMDAR-mediated EPSCs together upon CQ treatment, pyramidal neurons were voltage-clamped at −40 mV, and EPSCs were evoked at every 15 sec. AMPAR-mediated EPSC was determined as a peak amplitude of EPSC, and NMDAR-mediated EPSC as a component at 60 ms after stimulation. NMDA/AMPA ratio at −40 mV was calculated by using both values, and monitored during the experimental process. […] Picrotoxin (100 uM) was always added to ACSF to block GABAA receptor-mediated currents.

Tbr1^+/− mice = conditions: reported by Huang et al. 2014; cited from earlier work

In the case of `Nc1ncnc2c1cnn2-c1ccccc1` [PP3], the “Effect on clioquinol-dependent increase in NMDAR activity (NMDA-fEPSPs)” value (NMDAR [1]) is reported as “failed to block the NMDAR activation”.

With `O=C(NN=C1CCCCC1)C(=O)NN=C1CCCCC1` [cuprizone] the “Effect on clioquinol-dependent increase in NMDAR activity (NMDA-fEPSPs)” value (NMDAR [1]) was “did not inhibit the clioquinol-induced increase in NMDAR activity”.

In the case of “Src (40-58): Src-inhibitory peptide with a sequence corresponding to Src amino acid residues 40-58 (KPASADGHRGPSAAFAPAA; UniProt P12931 40-58, looked up, fragment)”, the “Effect on clioquinol-dependent increase in NMDAR activity (NMDA-eEPSCs)” value (NMDAR [2]; peptide in the patch pipette, 0.03 mg/mL, Shank2^−/− and wild-type synapses) is reported as “prevented clioquinol from increasing NMDAR activity”, the “Effect on clioquinol-dependent increase in NMDA/AMPA ratio at −40 mV” value (NMDAR [2]; peptide in the patch pipette, 0.03 mg/mL) is reported as “blocks CQ-dependent NMDAR activation” and the “Effect on clioquinol-dependent increase in NMDA/AMPA ratio at −40 mV” value (NMDAR [2]; peptide in the patch pipette, 0.03 mg/mL, listed as Src-inhibitory peptide) is reported as “blocked”. For the same compound, the “AMPAR function (AMPA-eEPSCs)” value (NMDAR [2]; peptide in the patch pipette, wild-type and Shank2^−/− synapses) was “unaffected”.

In the case of `CC(C)(C)n1nc(-c2ccc(Cl)cc2)c2c(N)ncnc21` [PP2], the “Effect on clioquinol-dependent increase in NMDAR activity (NMDA-fEPSPs)” value (NMDAR [1]) is reported as “removed clioquinol activation of NMDAR”.

In the case of `NC(CCCP(=O)(O)O)C(=O)O` (stereo not drawn) [AP5], the “NMDA-eEPSCs at −40 mV” value (NMDAR [2]; D-AP5 50 uM, 10 minutes, after CQ) is reported as “significantly reduced”.

For `O=C([O-])CN(CCN(CC(=O)[O-])CC(=O)[O-])CC(=O)[O-].[Ca+2].[Na+].[Na+]` [Ca-EDTA], the “NMDAR function (NMDA-fEPSPs), substance alone” value (NMDAR [1]; Ca-EDTA 2 mM, during and after the treatment, WT and KO) was “did not affect NMDA-fEPSP; also recorded: has no effect on NMDAR function” and the “Effect on clioquinol-dependent increase in NMDAR activity (NMDA-fEPSPs)” value (NMDAR [1]) was “eliminated the clioquinol-dependent increase in NMDAR activity”.

With `CN(C)S(=O)(=O)c1ccc2c(c1)/C(=C/c1cc3c([nH]1)CCCC3)C(=O)N2` [SU6656] the “Effect on clioquinol-dependent increase in NMDAR activity (NMDA-fEPSPs)” value (NMDAR [1]) was “removed clioquinol activation of NMDAR”.

In the case of `N[C@@H]1CONC1=O` [D-cycloserine], the “Reduction in social interaction” value (Tbr1^+/− mice) is given as “normalized”.
